Results published in patent US20060084694A1, “Ligand-dependant activation of Nur77 and uses thereof” (priority 2004, published 2006).

Experiments:
[1] = molecular target: T1, GAL4-Nur77 (full length) chimera (Homo sapiens, UniProt P22736); assay: GAL4-Nur77 (full length)/pGAL4 luciferase transactivation in Panc-28 cells; assay type: cell-based; details: for Nur77 activation, structure dependence (isomers and ring-substituted analogs): FIG. 1D, analogs data not shown; for luciferase activity, GAL4-Nur77 (full length)/pGAL4: Panc-28 cells, 10 or 20 μM (FIG. 1B)
T1 construct: Panc-28 cells transfected with a GAL4-Nur77 (full length) chimera; expressed in transfected cells; host or cells: Panc-28
T1 sequence (P22736 whole entry, change not shown, the tested form may be a part): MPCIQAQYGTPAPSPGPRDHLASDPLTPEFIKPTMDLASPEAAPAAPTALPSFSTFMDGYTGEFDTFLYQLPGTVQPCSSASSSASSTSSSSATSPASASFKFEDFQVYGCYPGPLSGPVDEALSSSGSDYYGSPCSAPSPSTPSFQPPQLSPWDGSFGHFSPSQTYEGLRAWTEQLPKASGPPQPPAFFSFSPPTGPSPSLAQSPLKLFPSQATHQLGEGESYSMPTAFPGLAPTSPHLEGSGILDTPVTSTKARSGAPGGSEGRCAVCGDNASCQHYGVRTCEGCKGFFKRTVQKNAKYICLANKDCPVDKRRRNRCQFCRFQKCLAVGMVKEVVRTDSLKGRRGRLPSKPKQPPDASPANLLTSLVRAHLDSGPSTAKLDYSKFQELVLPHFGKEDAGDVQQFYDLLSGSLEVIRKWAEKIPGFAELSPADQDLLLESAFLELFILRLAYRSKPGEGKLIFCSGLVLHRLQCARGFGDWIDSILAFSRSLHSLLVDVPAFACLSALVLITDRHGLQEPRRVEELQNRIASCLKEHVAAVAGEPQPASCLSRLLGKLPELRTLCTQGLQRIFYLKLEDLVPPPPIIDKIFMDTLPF
Text: Structure-dependent activation of Nur77 by a series of eleven C-substituted DIMs was investigated in Panc-28 cells transfected with a GAL4-Nur77 (full length) chimera and a reporter construct containing five GAL4 response elements linked to a luciferase reporter gene (pGAL4).
(§1) Transfection assays were essentially carried out as previously described using Lipofectamine Plus reagent (Invitrogen, Carlsbad, Calif.) and luciferase activities were normalized to β-galactosidase activity. […] Results are expressed as means±SE for at least three replicate determinations for each treatment group.

[2] = molecular target: T2, GAL4-Nur77(E/F) (Homo sapiens, UniProt P22736); assay: GAL4-Nur77(E/F)/pGAL4 transactivation in Panc-28 cells; assay type: cell-based; details: 5-15 μM (FIG. 2A)
T2 construct: a chimeric GAL4-Nur77(E/F) construct containing only the E/F domain of Nur77; expressed in transfected cells; host or cells: Panc-28
T2 sequence (P22736 360-595 limits assumed): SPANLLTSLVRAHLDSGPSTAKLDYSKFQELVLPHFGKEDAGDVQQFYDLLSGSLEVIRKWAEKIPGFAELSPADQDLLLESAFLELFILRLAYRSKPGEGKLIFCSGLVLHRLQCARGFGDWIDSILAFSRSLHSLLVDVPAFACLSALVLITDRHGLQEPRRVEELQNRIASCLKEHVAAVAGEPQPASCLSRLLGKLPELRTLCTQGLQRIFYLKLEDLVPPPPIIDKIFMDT
Text: as §1
(§2) (FIG. 2A). […] The structural specificity of Nur77 antagonists was further investigated using meta-hydroxy (DIM-C-mPhOH) and ortho-hydroxy (DIM-C-oPhOH) analogs. […] Thus, activation of Nur77 by C-DIMs was E/F domain-dependent and Nur77 activation was inhibited by DIM-C-pPhOH; moreover, both activation and inhibition of Nur77-mediated transactivation was dependent on the structure of the C-DIM compounds.

[3] = tested on: Panc-28 cells; assay: Annexin V-Alexa-488 / propidium iodide apoptosis assay in Panc-28 cells; assay type: cell-based; details: for annexin V-stained cells: Panc-28, 10 and 20 μM, 8 and 12 hr (FIG. 5C)
Procedure: Detection of phosphatidylserine on the outside of the cell membrane, a unique and early marker for apoptosis, was performed using a commercial kit (Vybrant Apoptosis Assay Kit #2; Molecular Probes, Eugene, Oreg.). […] Binding of annexin V-Alexa-488 conjugate and propidium iodide (PI) was performed according to the manufacturer's instructions. After binding and washing, cells were observed under phase contrast and epifluorescent illumination using a 495-nm excitation filter and a 520-nm absorption filter for annexin V-Alexa 488 and a 546-nm excitation filter and a 590-nm absorption filter for PI. Healthy cells were unstained by either dye; cells in early stages of apoptosis were stained only by annexin V, while dead cells were stained by annexin V and PI. The assay was repeated on three separate Panc-28 cell preparations.

[4] = tested on: TRAIL mRNA; assay: TRAIL mRNA in Panc-28 cells (RT-PCR); assay type: cell-based; details: Panc-28 cells (FIG. 6B)
Procedure: cDNA was prepared from the Panc-28 cell line using a combination of oligodeoxythymidylic acid (Oligo d(T)16), and dNTP mix (Applied Biosystems) and Superscript II (Invitrogen). Each PCR was carried out in triplicate in a 20-μl volume using Sybr Green Mastermix (Applied Biosystems) for 15 min at 95° C. for initial denaturing, followed by 40 cycles of 95° C. for 30 s and 60° C. for 1 min in the ABI Prism 7700 Sequence Detection System. The ABI Dissociation Curves software was used following a brief thermal protocol (95° C. 15 s and 60° C. 20 s, followed by a slow ramp to 95° C.) to control for multiple species in each PCR amplification. Values for each gene were normalized to expression levels of TBP. The sequences of the primers used for RT-PCR were as follows: TRAIL forward, 5′-CGTGTACTTTACCAACGAGCTGA-3′, reverse, 5′-ACGGAGTTGCCACTTGACTTG-3′; and TBP forward, 5′-TGCACAGGAGCCAAGAGTGAA-3′, reverse, 5′-CACATCACAGCTCCCCACCA-3′.

[5] = tested on: Panc-28 cell xenografts; assay: Tumor growth in athymic nude mice bearing Panc-28 cell xenografts; assay type: in vivo, athymic nude mice (BALB/c)
Procedure: Male athymic nude mice (BALB/c, ages 8-12 weeks) were purchased from Harlan (Indianapolis, Ind.). The mice were housed and maintained in laminar flow cabinets under specific pathogen-free conditions. Panc-28 cells were harvested from subconfluent cultures by trypsinization and washed. Panc-28 cells (2×10^6) were injected subcutaneously into each mouse on both flanks using a 30-gauge needle. The tumors were allowed to grow for 11 days until tumors were palpable. Mice were then randomized into two groups of seven mice per group and dosed by oral gavage with either corn oil or DIM-C-pPhOCH3 every second day. The volume of corn oil was 75 μl, and the dose of DIM-C-pPhOCH3 was 25 mg/kg/day. The mice were weighed, and tumor areas were also measured ever other day. Final body and tumor weights were determined at the end of the dosing regiment; and selected tissues were further examined by routine H & E staining and immunohistochemical analysis for apoptosis using the TUNEL assay.

[6] = molecular target: VP-Nur77 (ligand binding domain) / GAL4-coactivator chimeras (Homo sapiens, UniProt P22736); details: Panc-28, VP-Nur77
VP-Nur77 (ligand binding domain) / GAL4-coactivator chimeras, sequence (P22736 360-595 limits assumed, change not shown): as the sequence (P22736 360-595 limits assumed) above
Procedure: Panc-28 cells were plated in 12-well plates at 1×10^5 cells/well in DME-F12 media supplemented with 2.5% charcoal-stripped FBS. After growth for 16 hr, various amounts of DNA, i.e. Gal4Luc (0.4 μg), β-gal (0.04 μg), VP-Nur77(E/F) (0.04 μg), pM SRC1 (0.04 μg), pMSRC2 (0.04 μg), pMSRC3 (0.04 μg), pMDRIP205 (0.04 μg) and pMCARM-1 (0.04 μg) were transfected by Lipofectamine (Invitrogen) according to the manufacturer's protocol. After 5 hr of transfection, the transfection mix was replaced with complete media containing either vehicle (DMSO) or the indicated ligand for 20-22 hr. Cells were then lysed with 100 ml of 1X reporter lysis buffer, and 30 μl of cell extract were used for luciferase and β-Gal assays. Lumicount was used to quantitate luciferase and β-Gal activities, and the luciferase activities were normalized to β-Gal activity.
Ligand-induced Nur77-coactivator interactions were determined using a construct (pGAL4) containing 5 GAL4 response elements. Coactivators used in this study include SRC-1, SRC-2 (TIFII), SRC-3 (AIB1), PGC-1, TRAP220 and CARM-1. A GAL4-repressor (SMRT) chimera was also included in the assay.

[7] = molecular target: T3, PPARγ (Homo sapiens, UniProt P37231); details: Qin, et al., 2004, Chintharlapalli; cited from earlier work
T3 sequence (P37231 1-505): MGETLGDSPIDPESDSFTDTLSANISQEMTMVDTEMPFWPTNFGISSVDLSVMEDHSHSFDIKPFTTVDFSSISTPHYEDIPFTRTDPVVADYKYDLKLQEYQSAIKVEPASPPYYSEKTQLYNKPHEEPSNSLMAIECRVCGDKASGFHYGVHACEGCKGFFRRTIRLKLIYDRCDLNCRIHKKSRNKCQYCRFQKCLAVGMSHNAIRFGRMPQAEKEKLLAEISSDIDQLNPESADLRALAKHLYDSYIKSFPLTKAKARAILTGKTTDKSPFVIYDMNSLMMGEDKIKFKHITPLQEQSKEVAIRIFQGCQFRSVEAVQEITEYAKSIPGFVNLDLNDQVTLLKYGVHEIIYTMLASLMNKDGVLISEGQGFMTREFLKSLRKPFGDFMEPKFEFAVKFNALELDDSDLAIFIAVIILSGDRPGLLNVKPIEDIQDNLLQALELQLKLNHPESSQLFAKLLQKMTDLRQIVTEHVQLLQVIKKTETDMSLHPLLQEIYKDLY

[8] = molecular target: Nur77 (Homo sapiens, UniProt P22736); assay: Nur77 subcellular localization and level (immunostaining, Western blot of cytosolic and nuclear extracts); details: for Nur77 translocation, Western blot of cytosolic and nuclear extracts: Panc-28, 10 or 20 μM, 12 hr (FIG. 4B); for Nur77 localization by immunostaining: Panc-28 cells, 10 μM, 6 hr (FIG. 4A)
Nur77, sequence (P22736 whole entry): as the sequence (P22736 whole entry, change not shown, the tested form may be a part) above
Procedure: The different cancer cell lines were cultured under standardized conditions. Panc-28 cells were grown in DMEM:Ham's F-12 media containing 2.5% charcoal stripped fetal bovine serum, and cells were treated with DMSO and different concentrations of test compounds as indicated. […] For all other assays, cytosolic, nuclear fractions, or whole cell lysates were obtained at various time points, analyzed by Western blot analysis, and bands were quantitated as previously described (Qin, et al., 2004; Abdelrahim, et al., 2002). Immunocytochemical analysis was determined using Nur77 antibodies as previously reported (Abdelrahim, et al., 2002).
Sp1 is a nuclear protein and was used as a control to ensure efficient separation of the two extracts and Sp1 was identified only in the nuclear fraction.

[9] = tested on: PARP cleavage; assay: PARP cleavage in Panc-28 cells (Western blot); assay type: cell-based; details: for effect of leptomycin B on PARP cleavage induced by Nur77 agonists: Panc-28, LMB 1 ng/ml cotreatment (FIG. 5E)
Procedure: The different cancer cell lines were cultured under standardized conditions. Panc-28 cells were grown in DMEM:Ham's F-12 media containing 2.5% charcoal stripped fetal bovine serum, and cells were treated with DMSO and different concentrations of test compounds as indicated. For longer term cell survival studies, the media was changed every second day, and values were presented for a 4 day experiment. For all other assays, cytosolic, nuclear fractions, or whole cell lysates were obtained at various time points, analyzed by Western blot analysis, and bands were quantitated as previously described (Qin, et al., 2004; Abdelrahim, et al., 2002). Immunocytochemical analysis was determined using Nur77 antibodies as previously reported (Abdelrahim, et al., 2002).

[10] = molecular target: T4, GAL4-Nur77 (Homo sapiens, UniProt P22736); assay: Nur77 antagonist assay: cotreatment with Nur77 agonists, GAL4-Nur77/pGAL4 in Panc-28 cells; assay type: cell-based; details: for Nur77 antagonist activity (inhibition of agonist-induced transactivation): Panc-28, cotreatment with Nur77 agonists, 10 or 20 μM (FIG. 2C-2E)
T4 construct: expressed in transfected cells; host or cells: Panc-28
T4 sequence (P22736 whole entry, the tested form may be a part): as the sequence (P22736 whole entry, change not shown, the tested form may be a part) above
Text: as §1, §2

COc1ccc(C(c2c[nH]c3ccccc23)c2c[nH]c3ccccc23)cc1 [DIM-C-pPhOCH3]
Nur77 activation, structure dependence (isomers and ring-substituted analogs) [1]: active | luciferase activity, GAL4-Nur77 (full length)/pGAL4 [1]: activated luciferase activity | luciferase activity, GAL4-Nur77(E/F)/pGAL4 [2]: induced luciferase activity | annexin V-stained cells [3]: time- and dose-dependent increase | PI staining after 6 hr ([3]; Panc-28, 6 hr): minimal PI staining | annexin V-stained cells after 6 hr ([3]; Panc-28, 6 hr): significantly increased | PI staining after 12 hr ([3]; Panc-28, 12 hr): PI staining was increased | TRAIL mRNA levels [4]: induced TRAIL mRNA levels | animal weight gain and organ weights ([5]; 25 mg/kg/day vs corn oil): comparable | tumor weights ([5]; 25 mg/kg/day, oral gavage (FIG. 7B)): parallel decrease in tumor weights | tumor growth (area) ([5]; 25 mg/kg/day, oral gavage every second day (FIG. 7A)): significantly inhibited tumor growth | brain regions by H & E staining ([5]; treated vs corn oil): did not indicate any differences | transactivation with GAL4-CARM-1 [6]: slightly activated | transactivation with GAL4-SRC-3 [6]: induced transactivation | PPARγ activation [7]: PPARγ-inactive | Nur77 translocation, Western blot of cytosolic and nuclear extracts [8]: translocation from the nucleus is not observed | Nur77 localization by immunostaining [8]: Nur77 remained in the nucleus

CCC(=C/[C@H](C)C/C=C/C(C)=C/[C@@H](C)C(=O)[C@@H](C)[C@H](O)[C@@H](C)C/C(C)=C/C(=O)O)/C=C/[C@@H]1OC(=O)C=C[C@@H]1C [leptomycin B, Leptomycin B]
PARP cleavage, LMB alone ([9]; Panc-28, 1 ng/ml (FIG. 5E)): slightly induced PARP cleavage | effect of leptomycin B on PARP cleavage induced by Nur77 agonists [9]: not affected | effect of leptomycin B on PARP cleavage induced by Nur77 agonists ([9]; listed as LMB): enhanced PARP cleavage

COc1cccc(C(c2c[nH]c3ccccc23)c2c[nH]c3ccccc23)c1 [DIM-C-mPhOCH3]
Nur77 activation, structure dependence (isomers and ring-substituted analogs) [1]: Only the para-substituted compound was active

c1ccc(C(c2c[nH]c3ccccc23)c2c[nH]c3ccccc23)cc1 [DIM-C-Ph]
luciferase activity, GAL4-Nur77 (full length)/pGAL4 [1]: activated luciferase activity | luciferase activity, GAL4-Nur77(E/F)/pGAL4 [2]: induced luciferase activity | TRAIL mRNA levels [4]: induced TRAIL mRNA levels | PPARγ activation [7]: PPARγ-inactive | Nur77 translocation, Western blot of cytosolic and nuclear extracts [8]: translocation from the nucleus is not observed | Nur77 localization by immunostaining [8]: Nur77 remained in the nucleus

FC(F)(F)c1ccc(C(c2c[nH]c3ccccc23)c2c[nH]c3ccccc23)cc1 [DIM-C-pPhCF3]
luciferase activity, GAL4-Nur77 (full length)/pGAL4 [1]: activated luciferase activity | luciferase activity, GAL4-Nur77(E/F)/pGAL4 [2]: induced luciferase activity | transactivation with GAL4-CARM-1 [6]: slightly activated | PPARγ activation [7]: also activates PPARγ | Nur77 translocation, Western blot of cytosolic and nuclear extracts [8]: translocation from the nucleus is not observed | Nur77 localization by immunostaining [8]: Nur77 remained in the nucleus

COc1ccccc1C(c1c[nH]c2ccccc12)c1c[nH]c2ccccc12 [DIM-C-oPhOCH3]
Nur77 activation, structure dependence (isomers and ring-substituted analogs) [1]: Only the para-substituted compound was active

Oc1ccccc1C(c1c[nH]c2ccccc12)c1c[nH]c2ccccc12 [DIM-C-oPhOH]
Nur77 antagonist activity (inhibition of agonist-induced transactivation) [10]: did not exhibit Nur77 antagonist activity | toxicity in cotreated cells ([10]; high doses (20 μM) of both Nur77 agonists and DIM-C-oPhOH): toxic

CC[C@@]1(O)C(=O)OCc2c1cc1n(c2=O)Cc2cc3ccccc3nc2-1 [camptothecin, reference compound]
annexin V-stained cells [3]: comparable

Oc1cccc(C(c2c[nH]c3ccccc23)c2c[nH]c3ccccc23)c1 [DIM-C-mPhOH]
Nur77 antagonist activity (inhibition of agonist-induced transactivation) [10]: did not inhibit
